# Source: ChEMBL document CHEMBL3580627, “Dibenzazepines and dibenzoxazepines as sodium channel blockers” (Bioorg Med Chem Lett, 2014)
# Tests used:
# [1] = Kinetic solubility of the compound at pH 1.2; type: physicochemical; details: buffer, read-out: Kinetic_solubility
# [2] = molecular target: T1, Sodium channel protein type 9 subunit alpha (Homo sapiens, UniProt Q15858); assay: Inhibition of Nav1.7 (unknown origin) expressed in CHO cells after 45 mins by FLIPR assay; type: cell-based
# [3] = Kinetic solubility of the compound at pH 6.8; type: physicochemical; details: buffer, read-out: Kinetic_solubility
# [4] = in vitro; details: rat, liver microsomes
# Description: Metabolic stability in rat liver microsomes assessed as compound remaining at 1 uM after 30 mins
# [5] = in vitro; details: human, liver microsomes
# Description: Metabolic stability in human liver microsomes assessed as compound remaining at 1 uM after 30 mins
# [6] = molecular target: T1, Sodium channel protein type 9 subunit alpha; assay: Inhibition of Nav1.7 (unknown origin) by electrophysiological assay
# T1 sequence (Q15858 whole entry): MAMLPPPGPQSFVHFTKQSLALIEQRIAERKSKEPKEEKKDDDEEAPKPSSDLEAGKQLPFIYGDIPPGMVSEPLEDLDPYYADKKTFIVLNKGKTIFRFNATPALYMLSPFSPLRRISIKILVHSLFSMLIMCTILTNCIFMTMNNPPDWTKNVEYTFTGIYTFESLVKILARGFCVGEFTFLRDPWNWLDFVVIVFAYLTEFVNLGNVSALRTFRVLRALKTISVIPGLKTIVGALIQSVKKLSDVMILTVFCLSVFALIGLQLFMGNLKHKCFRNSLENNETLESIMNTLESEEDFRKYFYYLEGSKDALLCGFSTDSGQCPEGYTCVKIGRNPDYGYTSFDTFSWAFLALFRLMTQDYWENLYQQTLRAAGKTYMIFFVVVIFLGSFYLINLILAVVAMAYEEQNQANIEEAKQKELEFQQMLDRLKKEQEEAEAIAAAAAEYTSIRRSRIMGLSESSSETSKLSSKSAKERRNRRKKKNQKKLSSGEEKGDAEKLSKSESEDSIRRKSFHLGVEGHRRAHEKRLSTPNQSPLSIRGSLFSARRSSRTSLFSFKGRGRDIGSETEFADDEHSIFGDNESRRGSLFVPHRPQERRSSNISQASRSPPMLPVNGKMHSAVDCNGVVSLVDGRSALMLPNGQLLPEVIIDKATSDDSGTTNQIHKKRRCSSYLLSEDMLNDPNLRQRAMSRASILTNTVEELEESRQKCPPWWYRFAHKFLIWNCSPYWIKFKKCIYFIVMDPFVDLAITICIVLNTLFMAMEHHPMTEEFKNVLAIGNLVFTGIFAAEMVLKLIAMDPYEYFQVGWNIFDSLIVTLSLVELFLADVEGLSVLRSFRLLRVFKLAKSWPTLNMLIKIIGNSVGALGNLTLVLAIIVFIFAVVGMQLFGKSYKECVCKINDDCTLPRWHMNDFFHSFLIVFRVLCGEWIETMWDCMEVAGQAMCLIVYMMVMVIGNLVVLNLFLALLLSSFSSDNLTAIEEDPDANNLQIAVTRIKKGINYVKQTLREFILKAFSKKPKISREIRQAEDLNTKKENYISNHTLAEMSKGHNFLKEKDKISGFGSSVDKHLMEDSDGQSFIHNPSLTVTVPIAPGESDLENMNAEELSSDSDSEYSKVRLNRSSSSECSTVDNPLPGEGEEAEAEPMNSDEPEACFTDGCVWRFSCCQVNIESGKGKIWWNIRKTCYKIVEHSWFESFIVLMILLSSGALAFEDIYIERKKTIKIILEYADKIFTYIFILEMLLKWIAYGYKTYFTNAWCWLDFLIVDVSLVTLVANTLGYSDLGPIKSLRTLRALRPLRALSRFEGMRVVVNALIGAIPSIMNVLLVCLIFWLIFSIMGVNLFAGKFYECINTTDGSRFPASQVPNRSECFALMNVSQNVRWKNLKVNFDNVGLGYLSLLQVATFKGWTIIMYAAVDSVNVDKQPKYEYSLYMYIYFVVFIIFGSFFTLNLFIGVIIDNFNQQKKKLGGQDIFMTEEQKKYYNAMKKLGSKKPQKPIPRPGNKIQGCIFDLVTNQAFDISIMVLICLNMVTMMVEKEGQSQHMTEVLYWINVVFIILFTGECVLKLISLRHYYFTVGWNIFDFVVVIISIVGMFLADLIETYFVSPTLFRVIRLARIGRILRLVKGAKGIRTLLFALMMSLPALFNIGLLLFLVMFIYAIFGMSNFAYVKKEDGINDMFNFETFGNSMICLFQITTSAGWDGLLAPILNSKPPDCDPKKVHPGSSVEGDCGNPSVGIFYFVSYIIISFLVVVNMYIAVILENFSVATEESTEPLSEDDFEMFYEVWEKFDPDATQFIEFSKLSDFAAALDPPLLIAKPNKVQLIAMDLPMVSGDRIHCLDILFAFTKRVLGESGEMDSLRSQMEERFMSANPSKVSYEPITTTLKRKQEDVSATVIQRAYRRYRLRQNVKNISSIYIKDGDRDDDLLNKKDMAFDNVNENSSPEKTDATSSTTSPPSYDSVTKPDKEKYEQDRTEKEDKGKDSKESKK
SMILES,solubility kinetic [1],IC50 [2],solubility kinetic [3],"remaining at 0.5 h, 1 µM [4]","remaining at 0.5 h, 1 µM [5]",Ki [6]
OC[C@@H](O)c1cccc(-c2ccc3c(c2)CNc2cc(C(F)(F)F)ccc2O3)n1,80 µM,–,12 µM,–,–,–
CN1Cc2cc(-c3cccc([C@H](O)CO)n3)ccc2Oc2ccc(C(F)(F)F)cc21,70 µM,–,0.4 µM,94%,98%,440 nM
NC(=O)CN1Cc2cc(-c3cccc([C@H](O)CO)n3)ccc2Oc2ccc(C(F)(F)F)cc21,80 µM,1800 nM,1 µM,91%,83%,–
CN1Cc2cc(C(F)(F)F)ccc2Oc2ccc(-c3cccc([C@H](O)CO)n3)cc21,73 µM,–,6 µM,74%,91%,560 nM
CN1Cc2cc(-c3cccc([C@H](O)[C@@H](O)C(N)=O)n3)ccc2Oc2ccc(C(F)(F)F)cc21,70 µM,–,0.8 µM,93%,94%,920 nM
NC(=O)N1c2ccccc2C=Cc2ccccc21 [CARBAMAZEPINE],75 µM,–,74 µM,37%,38%,–

# The next lines start with the values.
solubility kinetic [1],IC50 [2],solubility kinetic [3],"remaining at 0.5 h, 1 µM [4]","remaining at 0.5 h, 1 µM [5]",Ki [6],SMILES
0.2 µM,–,–,–,–,–,NC(=O)c1cccc(-c2ccc3c(c2)CCc2cc(Cl)ccc2N3)n1
0.2 µM,> 10000 nM,–,–,–,–,CCN1c2ccc(Cl)cc2CCc2cc(-c3cccc(C(N)=O)n3)ccc21
12 µM,–,7 µM,–,–,–,CC(=O)N1c2ccc(Cl)cc2CCc2cc(-c3cccc(C(N)=O)n3)ccc21
60 µM,–,0.1 µM,72%,79%,–,CN1c2ccc(-c3cccc([C@H](O)CO)n3)cc2CCc2cc(C(F)(F)F)ccc21
